# Laboratory results from patent publication US9739734B2, “Methods and systems of detecting exocytosis of a target molecule from a population of cells” (THE MARINE […], priority 2013, dated 2017).
# Test system: pancreatic islet
# Experiment: Impedance analysis of a pancreatic islet for insulin exocytosis (single frequency, real-time)
# Type: cell-based
# Description: In one embodiment, the method can be used to measure exocytosis of a molecule from an islet of cells. […] In one embodiment, islets can be modeled by 4 passive elements as in the equivalent electric circuit, where RMEM and CMEM represent the sum of the plasma membrane (MEM) resistances (R) and capacitances (C), and RCYT and RINT represent the sum of cytosolic (CYT) and intercellular space (INT) resistances, for all cells in the islet, respectively (FIG. 1B). AC currents applied across a whole islet result in voltage drops across these 4 elements, which are dependent, in part, on the AC frequency and the impedance (Z) of these elements (V=I(ZR(MEM+CYT+INT)+ZC(MEM)). ZC(MEM) and ZR(MEM) are generally sensitive to the level of an applied secretagogue (e.g., glucose), which at stimulatory levels decrease the RMEM, via opening of ion channels, and increase CMEM, via surface area increase reflective of exocytosis. Separation of the measured AC voltage into real (in phase with current) and imaginary (out of phase with current) components for 2 different frequencies can provide direct determination of RMEM, CMEM, RCYT and RINT through generation of 4 separate equations.
# In order to optimize the resolution for monitoring changes in CMEM, an appropriate AC current can be applied at selected frequencies where the measured voltage drop across CMEM is readily detectable (e.g., where the measured voltage drop cross CMEM changes the most) during exocytosis. […] CIP can provide visualization of the changes in plasma membrane capacitance (PMc) over the range of applied frequencies, and thus the frequencies (e.g., 2 frequencies) at which the largest changes (e.g., the two largest changes) in plasma membrane capacitance can be determined as optimal AC frequencies.
# The two optimal AC frequencies are then applied simultaneously to islets, e.g., according to the block diagram in FIG. 2. […] The computer can be used to compute, track and store the values of the passive elements of the equivalent circuit corresponding to the islet being measured. […]
compound,measurement,setting,value
"[Cl-].[K+] [KCl, potassium chloride]",exocytosis of insulin from cells in the islet (shift in complex impedance plot),"25 mM KCl, before vs after addition, one frequency, FIG. 3",substantial exocytosis of insulin
same,change in whole islet capacitance (imaginary component of impedance),"KCl final concentration 25 mM, single frequency ~1250 Hz, time series, FIG. 4B",immediate change in whole islet capacitance
same,change in whole islet resistance (real component of impedance),"KCl final concentration 25 mM, single frequency, time series, FIG. 4A",not whole islet resistance
